According to patent US20110046147A1, “17BETA-HYDROXYSTEROID DEHYDROGENASE TYPE 1 INHIBITORS FOR THE TREATMENT OF HORMONE-RELATED DISEASES” (UNIVERSITAT DES SAARLANDES, priority 2007, published 2011):

How the values were obtained:
[1] = biological target: T1, CYP2D6 (Homo sapiens, UniProt P10635); experiment: Inhibition of hepatic CYP enzymes: CYP2D6; type: biochemical; conditions: read-out: CYP2D6 IC50 (mean ± SD)
T1 construct: purchased Becton Dickinson GmbH (Heidelberg)
Text: (§1) Drug interactions (inhibition of hepatic CYP enzymes): The inhibition of six human hepatic cytochrome P450 enzymes by selected compounds was examined by means of the kit supplied by Becton Dickinson GmbH (Heidelberg).

[2] = biological target: T2, CYP2C9 (Homo sapiens, UniProt P11712); experiment: Inhibition of hepatic CYP enzymes: CYP2C9; type: biochemical; conditions: read-out: CYP2C9 IC50 (mean ± SD)
T2 construct: purchased Becton Dickinson GmbH (Heidelberg)
Text: as §1

[3] = biological target: T3, CYP2B6 (Homo sapiens, UniProt P20813); experiment: Inhibition of hepatic CYP enzymes: CYP2B6; type: biochemical; conditions: read-out: CYP2B6 IC50 (mean ± SD)
T3 construct: purchased Becton Dickinson GmbH (Heidelberg)
T3 sequence (P20813 1-491): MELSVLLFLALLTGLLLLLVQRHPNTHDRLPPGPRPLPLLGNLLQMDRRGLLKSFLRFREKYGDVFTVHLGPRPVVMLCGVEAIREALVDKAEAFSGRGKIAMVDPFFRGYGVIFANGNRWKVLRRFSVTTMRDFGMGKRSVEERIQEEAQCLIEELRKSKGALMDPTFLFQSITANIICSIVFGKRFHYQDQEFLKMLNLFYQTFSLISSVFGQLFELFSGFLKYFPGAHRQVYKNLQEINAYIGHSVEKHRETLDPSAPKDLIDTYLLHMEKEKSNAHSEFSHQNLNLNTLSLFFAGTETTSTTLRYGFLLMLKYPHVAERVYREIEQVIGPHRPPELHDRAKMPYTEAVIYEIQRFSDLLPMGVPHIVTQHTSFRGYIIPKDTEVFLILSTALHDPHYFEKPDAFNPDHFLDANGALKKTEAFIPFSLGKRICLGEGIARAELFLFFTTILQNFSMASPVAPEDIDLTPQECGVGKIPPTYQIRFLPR
Text: as §1

[4] = system: CaCo-2 cells; experiment: CaCo2 transport assay; type: in vitro ADME; conditions: 50 μM in donor compartment
Experimental: Performance of selected compounds in a CaCo2 assay: Caco-2 cell culture and transport experiments were performed according to Yee (Yee, S., Pharm. Res., 14(6): 763-766 (1997)), but slight modifications were introduced. The cultivation times were reduced from 21 to 10 days by increasing the sowing density from 6.3·10^4 to 1.65·10^5 cells per well. […] The initial concentration of the compounds in the donor compartment was 50 μM (in buffer with 1% ethanol or DMSO). Samples were taken from the acceptor side after 60, 120 and 180 min and from the donor side after 0 and 180 min. For glycoprotein P (P-gp) studies, bidirectional experiments were performed. The absorptive and secretory permeabilities (Papp (a-b) and Papp (b-a)) were determined. Thus, erythromycin was used as a substrate, and verapamil was used as an inhibitor of P-gp. Each experiment was performed in triplicate. The integrity of the monolayer was determined by means of TEER (transepithelial electric resistance) and the permeability for each assay was determined using Lucifer Yellow. All samples of the CaCo-2 transport experiments were analyzed by means of LC/MS/MS after dilution with buffer (1:1 with 2% acetic acid). The apparent permeability coefficient (Papp) was calculated by means of the formula given below, where dQ/dt represents the recovery rate of the mass in the acceptor compartment, A represents the surface area of the transwell membrane, and c0 represents the initial concentration in the donor compartment.

[5] = biological target: T4, 17β-HSD1 (Homo sapiens, UniProt P14061); experiment: Inhibition of 17β-HSD1 (estrone to estradiol, radio-HPLC); type: biochemical; conditions: for IC50: human placenta enzyme, 500 nM estrone, NADH 500 μM; for Selectivity IC50 (17β-HSD2)/IC50 (17β-HSD1): ratio of IC50 values
T4 construct: In both cases, human placenta served as the enzyme source; from tissue; host or cells: human placenta
T4 sequence (P14061 1-328): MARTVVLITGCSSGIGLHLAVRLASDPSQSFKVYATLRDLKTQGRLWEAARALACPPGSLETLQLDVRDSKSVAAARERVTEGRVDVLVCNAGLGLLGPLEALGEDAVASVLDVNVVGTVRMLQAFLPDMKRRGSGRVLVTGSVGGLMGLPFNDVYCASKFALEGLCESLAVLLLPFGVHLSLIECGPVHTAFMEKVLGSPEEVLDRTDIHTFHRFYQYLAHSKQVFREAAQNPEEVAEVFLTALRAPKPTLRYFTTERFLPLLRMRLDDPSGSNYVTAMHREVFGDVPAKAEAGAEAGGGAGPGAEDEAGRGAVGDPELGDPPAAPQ

[6] = biological target: T5, CYP1A2 (Homo sapiens, UniProt P05177); experiment: Inhibition of hepatic CYP enzymes: CYP1A2; type: biochemical; conditions: read-out: CYP1A2 IC50 (mean ± SD)
T5 construct: purchased Becton Dickinson GmbH (Heidelberg)
T5 sequence (P05177 1-516): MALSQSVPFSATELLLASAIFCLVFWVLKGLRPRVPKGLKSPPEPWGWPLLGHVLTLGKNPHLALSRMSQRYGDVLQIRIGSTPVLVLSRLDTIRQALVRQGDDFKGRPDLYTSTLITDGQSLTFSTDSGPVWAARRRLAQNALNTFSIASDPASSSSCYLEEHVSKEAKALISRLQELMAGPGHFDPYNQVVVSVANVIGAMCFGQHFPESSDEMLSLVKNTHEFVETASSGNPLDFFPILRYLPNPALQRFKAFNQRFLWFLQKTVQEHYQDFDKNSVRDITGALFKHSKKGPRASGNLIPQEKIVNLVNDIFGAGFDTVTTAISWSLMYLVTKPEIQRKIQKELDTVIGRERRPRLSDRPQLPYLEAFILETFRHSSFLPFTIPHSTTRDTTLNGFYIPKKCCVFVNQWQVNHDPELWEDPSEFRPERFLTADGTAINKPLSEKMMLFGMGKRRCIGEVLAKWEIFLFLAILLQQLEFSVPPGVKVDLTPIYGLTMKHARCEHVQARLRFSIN
Text: as §1

T2 sequence (P11712 whole entry): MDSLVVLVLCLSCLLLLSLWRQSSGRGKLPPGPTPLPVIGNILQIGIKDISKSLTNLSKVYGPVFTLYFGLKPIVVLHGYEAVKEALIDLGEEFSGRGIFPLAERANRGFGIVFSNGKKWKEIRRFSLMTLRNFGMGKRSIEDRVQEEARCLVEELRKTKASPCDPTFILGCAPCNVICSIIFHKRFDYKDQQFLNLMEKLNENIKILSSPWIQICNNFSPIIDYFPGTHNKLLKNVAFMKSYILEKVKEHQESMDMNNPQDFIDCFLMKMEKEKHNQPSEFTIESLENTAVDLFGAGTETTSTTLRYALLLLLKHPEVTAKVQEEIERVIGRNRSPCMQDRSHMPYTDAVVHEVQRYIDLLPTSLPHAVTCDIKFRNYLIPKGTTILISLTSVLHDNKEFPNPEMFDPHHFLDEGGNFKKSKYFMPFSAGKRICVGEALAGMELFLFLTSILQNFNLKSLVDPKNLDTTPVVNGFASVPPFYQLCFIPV
T1 sequence (P10635 whole entry): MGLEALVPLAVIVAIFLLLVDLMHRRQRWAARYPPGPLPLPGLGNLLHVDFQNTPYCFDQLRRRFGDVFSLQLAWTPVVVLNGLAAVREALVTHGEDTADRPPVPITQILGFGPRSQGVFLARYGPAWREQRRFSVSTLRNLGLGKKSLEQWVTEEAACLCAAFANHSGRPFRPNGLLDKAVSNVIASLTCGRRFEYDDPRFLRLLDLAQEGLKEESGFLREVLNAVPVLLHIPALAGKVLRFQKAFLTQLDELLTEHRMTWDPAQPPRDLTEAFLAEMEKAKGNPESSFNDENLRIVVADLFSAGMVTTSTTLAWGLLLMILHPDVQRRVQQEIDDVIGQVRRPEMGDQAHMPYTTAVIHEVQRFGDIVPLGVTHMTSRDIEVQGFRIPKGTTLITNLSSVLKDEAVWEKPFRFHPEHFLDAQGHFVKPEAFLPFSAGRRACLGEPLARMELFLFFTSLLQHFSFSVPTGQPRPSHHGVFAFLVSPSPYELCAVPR

Row | IC50 [1] [µM] | IC50 [2] [nM] | IC50 [3] [µM] | Permeability (class in words) [4] | IC50 [5] [nM] | Selectivity IC50 (17β-HSD2)/IC50 (17β-HSD1) [5] | IC50 [6] [µM] | Papp [cm/sec ± rel. SD] [4] | Compound
1 | 6.99 ± 0.02 | 2980 ± 20 | 18.8 ± 2.05 | high | 3400 | 0.5 | 5.35 ± 0.24 | – | Oc1ccc(-c2ccsc2-c2cccc(O)c2)cc1 [Compound 28, 3-[3-(4-Hydroxyphenyl)-2-thienyl]phenol]
2 | 22 ± 0.29 | 1940 ± 100 | 7.68 ± 0.92 | high | 110 | 21 | 17.2 ± 1.16 | (12.5 ± 9.0) · 10^−6 cm/sec | Oc1cccc(-c2ccc(-c3cccc(O)c3)cc2)c1 [Compound 42, [1,1′,4′,1″]Terphenyl-3,3′-diol]
